Measurements taken from patent US6107549A, “Genetically engineered plant resistance to thiazopyr and other pyridine herbicides” (Monsanto Company, priority 1999, dated 2000).

Key:
tomato [1] = assay: Growth chamber assay, pre-emergence application; type: in vivo; details: PE
Protocol: Growth chamber and greenhouse assay for resistance. Pyridine herbicide resistance in transgenic tomato expressing RLE3 was examined in soil with pre-emergence (PE) applications of thiazopyr. Tomato seeds (R1 of #8255 and #8256, and control UC82B) were planted in 100 cm^2 pots (12 seeds per pot) in artificial METROMIX™ soil at a depth of 0.5 cm. Pots were watered and oversprayed with a 50% acetone/water solution (2 ml) containing thiazopyr at use rates of 0, 34, 67, 140, and 280 g/ha (grams per hectare). Pots were placed in a growth chamber (12 hr photoperiod; 60% humidity, 25° C. night/29° C. day; 600 μE light) with daily watering by subirrigation.

tomato [2] = assay: Greenhouse test, pre-plant incorporation (PPI); type: in vivo; details: 21 DAT
Protocol: Green house test for tomato resistance. Similar studies were also conducted in greenhouse with pre-plant incorporation (PPI) of thiazopyr into the soil. During pre-emergence application of thiazopyr, it is possible that cracks in soil may allow seedlings to escape from exposure to thiazopyr that was sprayed on the soil surface. One way to prevent such escapes is to apply thiazopyr with pre-plant incorporation (PPI). In this method of application, thiazopyr is first incorporated into the soil and seeds are sowed directly into that soil. PPI application of thiazopyr can cause the most plant injury and therefore require lower rates of thiazopyr application.
Tomato seeds were planted in 100 cm^2 pots filled with a sterilized silty loam soil (510 g). Seeds were placed on top of soil, and covered with additional soil (135 g) which was premixed with thiazopyr at equivalent use rates of 0, 34, 45, 67, and 140 g/ha. Greenhouse growing conditions were: 29° C. day to 21° C. night with supplemental lighting as needed to maintain 200-900 μE.
In order to be certain that tomato resistance to thiazopyr in the above PE experiment was not due to escapes, a further experiment in the greenhouse using conducted using PPI application. Plants were visually rated at 21 days after treatment (DAT) based on comparison of % growth to untreated plants, and the results are presented in the bar chart in FIG. 6. […] At the 45 g/ha rate, UC82B was severely injured (10% growth) and the transgenics lines minimally injured (90% growth). At the 67 g/ha rate, UC82B plants were dead and the transgenics were stunted at 40 to 50% growth. […] Both #8255 and #8230 lines expressed the pyridine-esterase at 0.05% of total protein. The term `resistance` in all of these examples can also be expressed as a recombinantly acquired tolerance to the applied levels or rates of pyridine herbicide.

tobacco seedlings = assay: Root elongation assay for thiazopyr resistance; type: in vivo
Protocol: Root elongation assay for thiazopyr resistance. Transgenic tobacco R1 seeds (line #37432) were sterilized with a 0.25% sodium hypochlorite solution and repeatedly washed with water. Just prior to solidification of agar (~45° C.), stock solutions of thiazopyr in DMSO (1% final concentration) was added; the final concentrations of thiazopyr were 0, 0.05, 0.1, and 0.5 μM. The liquid agar was vortexed and dispensed (3 ml) into glass test tubes. Seeds (~12 per test tube) were placed on the surface of solidified agar and stored in a growth chamber at 25° C. with a 12 hr day and night cycle. Root development and length were monitored visually with time. Control experiments employed untransformed tobacco seeds from the Samson variety.

RLE1 = target: T1, RLE1 (Oryctolagus cuniculus, UniProt P12337); assay: Thiazopyr hydrolysis by RLE1 preparation from Prof. Ozols; type: biochemical, rabbit; details: purified RLE1 preparation from Prof. Ozols
T1 construct: tissue Professor J. Ozols; host or cells: rabbit liver
T1 sequence (P12337 19-565): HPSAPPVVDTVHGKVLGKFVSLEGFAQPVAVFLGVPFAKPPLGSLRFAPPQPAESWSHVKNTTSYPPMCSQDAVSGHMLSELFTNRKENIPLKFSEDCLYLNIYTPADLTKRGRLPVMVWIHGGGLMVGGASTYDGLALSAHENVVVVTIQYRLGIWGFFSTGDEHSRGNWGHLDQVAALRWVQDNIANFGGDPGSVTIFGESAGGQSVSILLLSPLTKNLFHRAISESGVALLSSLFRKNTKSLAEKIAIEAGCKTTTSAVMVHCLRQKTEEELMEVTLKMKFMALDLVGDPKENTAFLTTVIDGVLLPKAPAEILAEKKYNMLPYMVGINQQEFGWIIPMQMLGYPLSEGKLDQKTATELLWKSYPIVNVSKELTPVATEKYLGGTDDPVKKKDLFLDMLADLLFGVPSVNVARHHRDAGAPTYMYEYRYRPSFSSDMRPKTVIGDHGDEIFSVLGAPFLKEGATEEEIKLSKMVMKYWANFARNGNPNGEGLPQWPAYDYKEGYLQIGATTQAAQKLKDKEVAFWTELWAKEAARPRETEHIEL
Protocol: Esterase activity assays. Esterase activity was measured in vitro by conversion of either [^14 C]thiazopyr or [^14 C]MON 14300 to their corresponding monoacid. Pyridine-esterase activity was assayed during protein purification and from tissue extracts of transgenic plants. The homogenizing buffer for plant tissues consisted of 100 mM Tris pH 8.0, 1 mM EDTA, 1 mM DTT, and 10% glycerol in water. Plant tissues (1 g/ml buffer) including leaves, seeds, flowers, seedlings, etc. were homogenized in conical centrifuge tubes using a spinning pestle at 4° C. Following centrifugation (12,000× g), the supernatant (250 μl) was assayed immediately for esterase activity by incubation with [^14 C]thiazopyr or [^14 C]MON 14300 (4 μg) in 0.1 M Tris pH 8.0 buffer (50 μl) at 37° C. The reaction was sampled (100 μL) at various times (0.5 to 100 hr) to generate a kinetic profile of monoacid formation. The reaction was stopped by addition of 1% trifluoroacetic acid in acetonitrile (v/v, 150 μl). Following centrifugation (12,000× g for 3 min), the supernatant was analyzed by HPLC/RAD (radioactivity detection) to resolve the monoacid from the parent herbicide and other metabolites. Control reactions in the absence of the esterase recovered un-reacted thiazopyr or MON 14300 for the duration of experiments. […]

COC(=O)c1c(C(F)F)nc(C(F)(F)F)c(C2=NCCS2)c1CC(C)C [thiazopyr]
difference in vegetative growth between UC82B and #8256 (tomato [1]; 34 g/ha): no detectable difference in vegetative growth
stunting (tomato [1]; UC82B control, 67 g/ha): about 20%
growth and survival (tomato [1]; UC82B control, 140 g/ha): never grew beyond the cotyledon stage and eventually all died
stunting (tomato [1]; transgenic #8256, 67 g/ha): none
growth and survival (tomato [1]; transgenic #8256, 140 g/ha): numerous healthy seedlings that were stunted but otherwise normal
resistant seedlings out of 12 to 16 seeds (tomato [1]; transgenic R1, 140 and 280 g/ha): approximately 4
effect on flower development, fruit set, and seed production (tomato [1]; transgenic plants, 140 and 280 g/ha): no effect
% growth compared to untreated plants (tomato [2]; UC82B control, 34 g/ha PPI): 75%
% growth compared to untreated plants (tomato [2]; UC82B control, 45 g/ha PPI): 10%
plant condition (tomato [2]; UC82B control, 67 g/ha PPI): dead
% growth compared to untreated plants (tomato [2]; transgenic #8255 and #8230, 34 g/ha PPI): 100%
% growth compared to untreated plants (tomato [2]; transgenic #8255 and #8230, 45 g/ha PPI): 90%
inhibition at 0.1 µM (tobacco seedlings; Nicotiana tabacum, control (Samson) seedlings, 0.1 μM thiazopyr): ~50%
root length (tobacco seedlings; transgenic line #37432, 0.1 μM thiazopyr): normal root length
root inhibition (tobacco seedlings; transgenic line #37432, 0.5 μM thiazopyr): Root inhibition was observed
thiazopyr hydrolytic activity (RLE1): demonstrated thiazopyr hydrolysis
thiazopyr hydrolytic activity (RLE1; listed as Thiazopyr): could be demonstrated with RLE1
